# Results from US20070122470A1, “New Combination Dosage Form” (priority 2005, published 2007).
# Legend:
# [1] = cited from earlier work
# [2] = randomized, double-blind, placebo-controlled trial of esomeprazole 20 mg once daily for 26 weeks in patients receiving ASA; assay type: in vivo
# Description: Patients were randomized to receive either esomeprazole 20 mg (administered as esomeprazole magnesium, i.e. Nexium® owned by AstraZeneca AB) or placebo once daily for 26 weeks. The primary outcome variable was the presence of gastric and/or duodenal ulcers at endoscopy over the 26-week period. A total of 991 patients, all receiving ASA in doses varying between 75-325 mg/day (57.1% male, mean age 69.3 years, mean acetyl salicylic acid (ASA) dose 124.0 mg/day) were included in the intent-to-treat population. The cumulative proportion of patients without either gastric or duodenal ulcer at 26 weeks was 98.2% with esomeprazole, compared with 93.8% with placebo (life table estimates, p=0.0007). The incidence of gastric ulcers was lower in patients taking esomeprazole than in those taking placebo (1.2% vs. 3.8%), as was the incidence of duodenal ulcers (0.4% and 1.6% for esomeprazole and placebo, respectively). Eight patients (1.6%) had developed an ulcer, in the esomeprazole group by 6 months, compared with 27 patients (5.4%) in the placebo group. This corresponded to a relative reduction of developing an ulcer of 70% when taking esomeprazole rather than placebo. A total of 95.6% of patients treated with esomeprazole had no esophageal lesions at week 26, compared with 81.7% of patients treated with placebo (p<0.0001).
# [3] = concomitant administration for patients treated with ASA (Müller et al 1997); cited from earlier work
# [4] = esomeprazole 20 mg once daily, 26 weeks, patients on ASA
compound,measurement,setting,value
"CC(=O)Oc1ccccc1C(=O)O [ASA, acetyl salicylic acid]",relative risk of developing an ulcer complication like bleeding from the stomach or the duodenum,[1]; daily dose as low as 75 mg (Weil et al BMJ 1995),doubles
same,hospital admissions due to adverse drug reactions caused by ASA,[1]; epidemiological data from the UK (Pirmohamed et al BMJ 2004),18%
COc1ccc2nc([S@@+]([O-])Cc3ncc(C)c(OC)c3C)[nH]c2c1 [esomeprazole],resolution of investigator-assessed upper gastrointestinal symptoms,"[2]; all symptoms, versus placebo",higher with esomeprazole than with placebo
same,safety and tolerability,"[2]; esomeprazole 20 mg once daily for 26 weeks, patients on ASA",safe and well tolerated
same,incidence of duodenal ulcers,[2]; [4],0.4%
same,incidence of gastric ulcers,[2]; [4],1.2%
same,cumulative proportion of patients without either gastric or duodenal ulcer at 26 weeks,"[2]; esomeprazole 20 mg once daily, 26 weeks, patients ≧60 years on ASA 75-325 mg/day, life table estimates, p=0.0007 vs placebo",98.2%
same,patients who had developed an ulcer by 6 months,"[2]; esomeprazole 20 mg once daily, patients on ASA, eight patients",1.6%
same,patients with no esophageal lesions at week 26,"[2]; esomeprazole 20 mg once daily, patients on ASA, p<0.0001 vs placebo",95.6%
same,relative reduction of developing an ulcer,"[2]; esomeprazole rather than placebo, by 6 months",70%
same,proportion of patients without esophageal lesions at 6 months,"[2]; patients with no lesions and those with Los Angeles grade A lesions at baseline, versus placebo",higher with esomeprazole than with placebo
Cc1c(OCC(F)(F)F)ccnc1C[S+]([O-])c1nc2ccccc2[nH]1 (stereo not drawn) [lansoprazole],effect on damages on the mucosa caused by ASA,[3],reduce damages on the mucosa caused by ASA
